Measured values from PMC9144492, “New Screening Protocol for Effective Green Solvents Selection of Benzamide, Salicylamide and Ethenzamide” (Molecules, 2022).

What was measured:
[1] = solid residues analysis after shake-flask (DSC, FTIR-ATR); format: physicochemical; conditions: sediments after shake-flask in water and organic solvents, FTIR-ATR and literature
Source text: The equilibrium in the solid-liquid saturated systems is governed not only by the properties of solvents but also by the solid state including polymorphic or pseudopolymorphic transformations as well as solvates formation. […] For this reason, the sediments collected after the shake-flask experiments for water and studied organic solvents were examined using differential scanning calorimetry (DSC) and Fourier transform infrared spectroscopy–attenuated total reflectance (FTIR-ATR) techniques. The detailed characteristics of solid residues were provided in supplementary materials (see Figures S5–S10). In the case of solvate formation or polymorphic transformation, the absorption band shifts on the IR spectra are often related to new hydrogen bonding patterns. In the case of DSC thermograms, new phases can be detected by observing additional signals due to the heat transfer associated with polymorphic transition or pseudo-polymorph transformations. […] This conclusion is in good accord with already reported observation. According to Ouyang et al. (2019) benzamide solid form is not altered in contact with such solvents as water, methanol, ethanol, 1-propanol, isopropanol, 1-butanol, isobutanol, methyl acetate, ethyl acetate, butyl acetate, acetonitrile and acetone. In the case of salicylamide, the only polymorphic transformation observed so far was with the use of high pressure. […]
The solid residues obtained after “shake-flask” procedure were dried on air and used for IR spectrophotometric and DSC measurements. Infrared spectra were recorded using PerkinElmer (Waltham, MA, USA) spectrophotometer equipped with a diamond attenuated total reflection (ATR) device. DSC thermograms were recorded using DSC 6000 Perkin Elmer (Waltham, MA, USA) calorimeter (heating rate: 5 K/min, nitrogen flow: 20 mL/min) calibrated using indium and zinc reference standards provided by the manufacturer.

[2] = shake-flask solubility in aqueous binary mixtures of DMSO, DMF and 4FM; format: physicochemical; conditions: aqueous 4FM mixture, 4FM mole fraction 0.6; room temperature (Figure 4)
Description: In this study, the “shake-flask” procedure used in the previous studies was applied and it consists of the following steps. First, the mixtures (suspensions) containing saturated solution and undissolved solids were prepared in glass screw test tubes. Then the mixtures were incubated and agitated for 24 h at controlled temperature (298.15, 303.15, 308.15, or 313.15 K) and 60 rpm using Orbital Shaker ES-20/60 (Biosan, Riga, Latvia). At the next step, the temperature was still controlled, however, the agitation was turned off and suspensions were let to settle down for an hour. Then, the supernatant was filtrated using 0.22 μm PTFE syringe membrane filter. Nextly, 0.1 mL of the filtrate was diluted with 2 mL of methanol. The samples prepared in this way were protected against crystallization, as the concentration was low. 0.5 mL of the filtrate was used for density measurements. All equipment including automatic pipette tips, membrane filters, and syringes were preheated at the measurement temperature in order to avoid the solute precipitation. All “shake-flask” experiments were carried out in triplicate. The concentration in the samples was determined spectrophotometrically using the calibration curve method. […] All UV spectra were recorded using an A360 UV-VIS spectrophotometer (AOE Instruments, Shanghai, China).

[3] = COSMO-RS solubility computation; conditions: acetic acid

Row | Structure (SMILES) | phase change of the solid in saturated solutions (polymorph / solvate) [1] | molar fraction solubility (xS) [2] [molar fraction] | mole fraction error of COSMO-RS computed solubility versus experiment [3] [%]
1 | NC(=O)c1ccccc1 [benzamide] | do not show a tendency to undergo phase changes | – | –
2 | CCOc1ccccc1C(N)=O [ethenzamide] | do not show a tendency to undergo phase changes | – | –
3 | NC(=O)c1ccccc1O [salicylamide] | do not show a tendency to undergo phase changes | 0.379 | −60
